For data set [1] the following is noted: known from DE patent 24 07 115; cited from earlier work.
The conditions of data set [2]: cited from earlier work.
The nature of data set [3]: Differential scanning calorimetry: thermal stability (Example 4). In kind it is physicochemical. As to conditions: DSC. On the procedure: Nicardipine hydrochloride melts at 160° C., its thermal decomposition beginning at about 200° C. Beta-cyclodextrin contains combined water, which begins to separate off the sample already at about 40° C. The dehydratation of beta-cyclodextrin is completed at about 100° C. Anhydrous beta-cyclodextrin is stable up to 270° C., when thermal decomposition starts, which becomes intensive at 300° C. The behaviour of the inclusion complex of nicardipine hydrochloride with beta-cyclodextrin at the thermoanalytical assay is quite different. After the initial slight loss of weight at temperatures below 150° C., which can be attributed to the adsorbed moisture, the substance is stable up to about 220° C, when thermal decomposition sets in. […] The DSC scans of nicardipine hydrochloride, beta-cyclodextrin, the physical mixture of nicardipine hydrochloride and beta-cyclodextrin and of the inclusion complex of nicardipine hydrochloride with beta-cyclodextrin clearly indicate the formation of the inclusion complex of nicardipine hydrochloride with beta-cyclodextrin. Thus, the differential scanning calorimetry measurements are in accordance with the powder X-ray diffraction patterns.

Turning to `COC(=O)C1=C(C)NC(C)=C(C(=O)OCCN(C)Cc2ccccc2)C1c1cccc([N+](=O)[O-])c1` (centres unmarked) [nicardipine, 2-(N-benzyl-N-methylamino)-ethyl methyl 2,6-dimethyl-4-(m-nitrophenyl)-1,4-dihydropyridine-3,5-dicarboxylate], the toxicity entry in data set [1] is listed as “low toxicity”. For the same molecule, in data set [2] (pH of 5 to 8), the “solubility in biological fluids” value was “poor solubility”. In data set [2] (water), the water solubility result is on record as “unsatisfactory”.

With `OC[C@H]1O[C@@H]2O[C@H]3[C@H](O)[C@@H](O)[C@@H](O[C@H]4[C@H](O)[C@@H](O)[C@@H](O[C@H]5[C@H](O)[C@@H](O)[C@@H](O[C@H]6[C@H](O)[C@@H](O)[C@@H](O[C@H]7[C@H](O)[C@@H](O)[C@@H](O[C@H]8[C@H](O)[C@@H](O)[C@@H](O[C@H]1[C@H](O)[C@H]2O)O[C@@H]8CO)O[C@@H]7CO)O[C@@H]6CO)O[C@@H]5CO)O[C@@H]4CO)O[C@@H]3CO` [beta-cyclodextrin], in data set [3], the “onset of thermal decomposition (stable up to)” value was 270 °C. Further, in data set [3] (anhydrous), the “temperature at which thermal decomposition becomes intensive” value amounted to 300 °C.

These data come from US5079237A, “Inclusion complex of nicardipine or its hydrochloride with beta-cyclodextrin and a sustained release pharmaceutical preparation containing the same” (priority 1988, dated 1992).
